molecular target: Dipeptidyl peptidase 4 (Homo sapiens, UniProt P27487); test: Inhibition of human DPP4 using H-Gly-Pro-AMC peptide substrate assessed as increase in fluorescence for 20 mins by fluorimetric assay
Sequence (P27487 whole entry): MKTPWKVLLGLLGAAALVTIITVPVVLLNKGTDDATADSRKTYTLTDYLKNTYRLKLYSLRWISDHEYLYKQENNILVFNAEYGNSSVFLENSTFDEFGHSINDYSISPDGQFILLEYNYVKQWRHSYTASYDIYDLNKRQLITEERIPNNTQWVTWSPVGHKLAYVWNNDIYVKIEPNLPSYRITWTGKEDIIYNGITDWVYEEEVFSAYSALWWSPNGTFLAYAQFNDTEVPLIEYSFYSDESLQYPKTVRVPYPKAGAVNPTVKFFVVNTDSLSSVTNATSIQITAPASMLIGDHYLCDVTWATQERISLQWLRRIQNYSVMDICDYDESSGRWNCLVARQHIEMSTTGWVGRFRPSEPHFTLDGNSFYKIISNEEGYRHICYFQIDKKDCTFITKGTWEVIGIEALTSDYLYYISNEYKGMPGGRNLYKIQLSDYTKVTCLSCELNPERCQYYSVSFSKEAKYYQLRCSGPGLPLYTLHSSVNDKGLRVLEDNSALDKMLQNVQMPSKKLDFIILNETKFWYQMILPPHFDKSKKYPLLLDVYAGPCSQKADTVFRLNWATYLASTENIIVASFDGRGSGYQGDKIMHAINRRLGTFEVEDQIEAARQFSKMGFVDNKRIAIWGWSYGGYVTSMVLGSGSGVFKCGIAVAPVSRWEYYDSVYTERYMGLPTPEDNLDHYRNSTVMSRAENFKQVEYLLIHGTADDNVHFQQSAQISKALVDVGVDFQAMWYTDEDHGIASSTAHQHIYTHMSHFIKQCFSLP

Question: `COc1cc2cc(Oc3ccc4ccc(=O)oc4c3)c(=O)oc2cc1O` [DAPHNORETIN] was tested. Which IC50 did it give?
Answer: 87.1 µM

Question: For `O=c1c(O)c(-c2ccc(O)c(O)c2)oc2cc(O)cc(O)c12` [QUERCETIN], which IC50 is on record?
Answer: 32.7 µM

Question: With `O=C(CC(O)CCc1ccccc1)c1ccc(O)cc1` (stereo not drawn) as the compound, how does the IC50 read?
Answer: 38.4 µM

Question: With `O=C(O)/C=C/c1ccc(O)cc1` [COUMARIC ACID] as the compound, how does the IC50 read?
Answer: 83.2 µM

Question: With `C=C(C)[C@@H]1CC[C@]2(C(=O)O)CC[C@]3(C)[C@H](CC[C@@H]4[C@@]5(C)CC[C@H](O)C(C)(C)[C@@H]5CC[C@]43C)[C@@H]12` [BETULINIC ACID] as the compound, how does the IC50 read?
Answer: 55.8 µM

Question: Which IC50 does the source give for `COC(=O)C1(O)CC(O)C(O)C(OC(=O)/C=C/c2ccc(O)c(O)c2)C1` (stereo not drawn) here?
Answer: 41.4 µM

Question: `O=C(/C=C/c1ccc(O[C@@H]2O[C@H](CO)[C@@H](O)[C@H](O)[C@H]2O)cc1)c1ccc(O)cc1O` [ISOLIQUIRITIN] was tested. Which IC50 did it give?
Answer: 26.9 µM

Question: Which IC50 does the source give for `CCOC(=O)c1c(O)cc(O)c2c1OC(c1ccc(O)cc1)CC2` (stereo not drawn) here?
Answer: 114 µM

Question: Which IC50 does the source give for `CCOC(=O)/C=C/c1ccc(O)c(O)c1` [ETHYL CAFFEATE] here?
Answer: 87.7 µM

Question: How did the IC50 turn out when `O=c1c(O)c(-c2cc(O)c(O)c(O)c2)oc2cc(O)cc(O)c12` [MYRICETIN] was run?
Answer: 37.1 µM

Question: How did the IC50 turn out when `CC[C@H](CC[C@@H](C)[C@H]1CC[C@H]2[C@@H]3CC=C4C[C@@H](O)CC[C@]4(C)[C@H]3CC[C@]12C)C(C)C` [BETA-SITOSTEROL] was run?
Answer: 28.8 µM

Question: `COc1cc(O)c(C(=O)/C=C/c2ccc(O)cc2)c(OC)c1` [FLAVOKAWAIN C] was tested. Which IC50 did it give?
Answer: 33.1 µM

Question: `COc1ccc2c(c1OC)CN(C)c1c-2ccc2cc3c(cc12)OCO3` [DIHYDROCHELERYTHRINE] was tested. Which IC50 did it give?
Answer: 56.2 µM
